Consider 20 compounds from ChEMBL document CHEMBL3352479, “Discovery and SAR study of 2-(4-pyridylamino)thieno[3,2-d]pyrimidin-4(3H)-ones as soluble and highly potent PDE7 inhibitors” (Bioorg Med Chem Lett, 2015).

The subject of one series is Lymphocyte. Briefly: Inhibition of IL2 production from mouse activated lymphocytes. It is filed as functional, cell-based.
The target of series [1] is High affinity 3',5'-cyclic-AMP phosphodiesterase 7A (Homo sapiens, UniProt Q13946). Briefly: Inhibition of PDE7A (unknown origin).
Sequence of High affinity 3',5'-cyclic-AMP phosphodiesterase 7A (Q13946 whole entry): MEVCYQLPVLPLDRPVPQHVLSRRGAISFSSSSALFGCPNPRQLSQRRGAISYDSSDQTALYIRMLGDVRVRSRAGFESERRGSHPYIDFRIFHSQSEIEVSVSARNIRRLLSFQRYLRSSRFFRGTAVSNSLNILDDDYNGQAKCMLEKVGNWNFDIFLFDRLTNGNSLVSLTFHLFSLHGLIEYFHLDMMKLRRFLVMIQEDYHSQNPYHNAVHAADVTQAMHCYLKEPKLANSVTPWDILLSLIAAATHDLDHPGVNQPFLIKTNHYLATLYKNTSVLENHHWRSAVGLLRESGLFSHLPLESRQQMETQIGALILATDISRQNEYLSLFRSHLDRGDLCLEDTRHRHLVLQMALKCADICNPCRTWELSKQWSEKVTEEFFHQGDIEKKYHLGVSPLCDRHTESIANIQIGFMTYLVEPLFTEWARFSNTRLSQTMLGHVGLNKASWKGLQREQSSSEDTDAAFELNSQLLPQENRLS
The target in series [2] is 3',5'-cyclic-AMP phosphodiesterase 4B (Homo sapiens, UniProt Q07343). The series can be described thus: Inhibition of PDE4B (unknown origin).
Sequence of 3',5'-cyclic-AMP phosphodiesterase 4B (Q07343 whole entry): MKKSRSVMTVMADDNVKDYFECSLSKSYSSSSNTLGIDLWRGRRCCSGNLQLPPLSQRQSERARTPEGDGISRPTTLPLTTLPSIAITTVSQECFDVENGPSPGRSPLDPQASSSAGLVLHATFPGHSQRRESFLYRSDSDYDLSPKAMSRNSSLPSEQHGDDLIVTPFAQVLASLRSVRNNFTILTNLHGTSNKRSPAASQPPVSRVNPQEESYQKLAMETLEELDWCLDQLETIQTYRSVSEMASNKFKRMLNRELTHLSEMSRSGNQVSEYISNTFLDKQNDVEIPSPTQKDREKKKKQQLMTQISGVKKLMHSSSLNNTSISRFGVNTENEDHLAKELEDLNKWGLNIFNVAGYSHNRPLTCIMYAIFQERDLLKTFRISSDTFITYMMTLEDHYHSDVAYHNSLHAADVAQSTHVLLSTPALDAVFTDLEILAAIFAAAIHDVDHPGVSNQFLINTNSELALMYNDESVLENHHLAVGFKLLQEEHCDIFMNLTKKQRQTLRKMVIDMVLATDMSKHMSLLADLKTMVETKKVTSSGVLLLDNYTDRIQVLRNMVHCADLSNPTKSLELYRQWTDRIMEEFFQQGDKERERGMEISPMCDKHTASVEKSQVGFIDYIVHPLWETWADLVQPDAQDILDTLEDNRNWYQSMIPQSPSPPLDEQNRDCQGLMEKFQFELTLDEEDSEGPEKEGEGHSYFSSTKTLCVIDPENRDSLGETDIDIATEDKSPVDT
Series [3] in a line: Solubility in phosphate buffer at pH 6.8. It counts as physicochemical.
Series [4] concerns the target cGMP-specific 3',5'-cyclic phosphodiesterase (Homo sapiens, UniProt O76074). Briefly: Inhibition of PDE5A (unknown origin).
Series [5] deals with cGMP-inhibited 3',5'-cyclic phosphodiesterase 3A (Homo sapiens, UniProt Q14432). Briefly: Inhibition of PDE3A (unknown origin).
Sequence of cGMP-inhibited 3',5'-cyclic phosphodiesterase 3A (Q14432 whole entry): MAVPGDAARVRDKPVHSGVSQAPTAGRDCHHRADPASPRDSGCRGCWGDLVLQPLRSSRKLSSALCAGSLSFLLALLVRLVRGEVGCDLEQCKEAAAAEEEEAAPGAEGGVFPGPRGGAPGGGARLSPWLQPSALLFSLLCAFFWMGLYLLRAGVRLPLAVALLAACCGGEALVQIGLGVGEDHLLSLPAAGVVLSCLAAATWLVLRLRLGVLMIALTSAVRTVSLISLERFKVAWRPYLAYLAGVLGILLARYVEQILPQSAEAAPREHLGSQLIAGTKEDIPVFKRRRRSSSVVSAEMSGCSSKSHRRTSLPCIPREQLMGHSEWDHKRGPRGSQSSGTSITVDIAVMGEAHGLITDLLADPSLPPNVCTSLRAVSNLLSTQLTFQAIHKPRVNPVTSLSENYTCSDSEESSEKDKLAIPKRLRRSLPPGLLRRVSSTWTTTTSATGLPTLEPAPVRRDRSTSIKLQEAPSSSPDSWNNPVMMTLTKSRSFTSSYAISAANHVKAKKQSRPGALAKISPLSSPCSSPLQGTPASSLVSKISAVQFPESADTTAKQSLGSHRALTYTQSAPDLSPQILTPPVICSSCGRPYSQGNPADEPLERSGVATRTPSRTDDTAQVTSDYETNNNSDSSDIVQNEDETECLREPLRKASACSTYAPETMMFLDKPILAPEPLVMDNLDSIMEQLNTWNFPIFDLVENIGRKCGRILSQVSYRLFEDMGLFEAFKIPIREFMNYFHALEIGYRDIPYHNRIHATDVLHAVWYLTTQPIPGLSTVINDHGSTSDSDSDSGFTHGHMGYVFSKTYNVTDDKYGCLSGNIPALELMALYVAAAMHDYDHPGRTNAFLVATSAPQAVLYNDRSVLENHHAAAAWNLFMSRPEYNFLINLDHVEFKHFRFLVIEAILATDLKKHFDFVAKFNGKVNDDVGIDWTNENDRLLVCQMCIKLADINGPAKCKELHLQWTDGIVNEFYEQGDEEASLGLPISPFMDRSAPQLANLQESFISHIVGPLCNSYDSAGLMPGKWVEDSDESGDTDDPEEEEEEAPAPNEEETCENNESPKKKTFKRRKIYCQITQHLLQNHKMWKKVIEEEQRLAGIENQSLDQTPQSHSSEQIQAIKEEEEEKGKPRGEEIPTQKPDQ

Converted amounts (≈) assume the structure as drawn. A value given as a limit tells only on which side of the number the result lay.

Regarding `CCn1c(Nc2ccncc2F)nc2c(C(C)(C)O)csc2c1=O`, the IC50 with Lymphocyte came to 260 nM; in series [1] it was 2.1 nM; in series [2], 56 nM. Moreover, in series [3], the concentration in solution (solubility) came to 17.9 µg/mL (≈ 51.4 µM).

On to `CCn1c(Nc2ccncc2F)nc2c(C3CCCN(C(=O)C(C)(C)CO)C3)csc2c1=O` (stereo not given), for which the half-maximal inhibitory concentration (IC50) in the series on Lymphocyte is 130 nM; in series [1], 1.2 nM; in series [2] it was 180 nM; in series [4], above 10000 nM; in series [5], 37 nM. Besides, the solubility in series [3] worked out at 22.7 µg/mL (≈ 47.9 µM).

`CCn1c(NC2CCCC2)nc2ccsc2c1=O` showed a solubility in series [3] of 12.1 µg/mL (≈ 45.9 µM).

For the compound `CCn1c(Nc2ccccc2Cl)nc2ccsc2c1=O`, the IC50 worked out at 41 nM in series [1] and 3000 nM in series [2]. Besides, the solubility in series [3] amounted to 6.3 µg/mL (≈ 20.6 µM).

As to `CCn1c(Nc2ccccc2)nc2ccsc2c1=O`, the IC50 in series [1] was found to be 290 nM; in series [2] it was 7400 nM. In series [3], this compound had a solubility of 19.5 µg/mL (≈ 71.9 µM).

On to `CCn1c(Nc2ccccc2F)nc2ccsc2c1=O`, for which the concentration for half-maximal inhibition (IC50) in series [1] came to 61 nM; in series [2], 2700 nM. In addition, the solubility in series [3] was 26.1 µg/mL (≈ 90.2 µM).

Consider `CCn1c(Nc2ccncc2)nc2ccsc2c1=O`, for which the figures for the IC50 in series [1] and in series [2] were 630 nM and 30000 nM, respectively. This compound displayed a solubility in series [3] of 111 µg/mL (≈ 408 µM).

Compound `CCn1c(Nc2ccccc2C#N)nc2ccsc2c1=O` yielded a 50% inhibitory concentration (IC50) in series [1] of 2300 nM. Moreover, the concentration in solution in series [3] (solubility) was 0.4 µg/mL (≈ 1.35 µM).

Regarding `CCn1c(Nc2ccncc2F)nc2ccsc2c1=O`, the figures for the IC50 in series [1] and in series [2] were 60 nM and 5300 nM, respectively. In series [3], the solubility is 120 µg/mL (≈ 413 µM).

On to `CCn1c(Nc2ccc(C)cc2)nc2ccsc2c1=O`, for which the IC50 in series [1] is above 1000 nM. In addition, the concentration in solution in series [3] (solubility) came to 84 µg/mL (≈ 294 µM).

`CCn1c(Nc2cccnc2)nc2ccsc2c1=O` showed an IC50 in series [1] above 1000 nM. For the same compound, the concentration in solution in series [3] (solubility) was 41.6 µg/mL (≈ 153 µM).

For `CCn1c(Nc2ccncc2F)nc2c(C#N)csc2c1=O`, the figures for the half-inhibitory concentration (IC50) in series [1] and in series [2] were 25 nM and 670 nM, respectively. In series [3], the concentration in solution (solubility) was 3.5 µg/mL (≈ 11.1 µM).

For `CCn1c(Nc2ccncc2F)nc2c(C(C)O)csc2c1=O` (stereo not given), the IC50 was determined as 1700 nM with Lymphocyte, 8.7 nM in series [1] and 610 nM in series [2]. The concentration in solution in series [3] (solubility) was 5.4 µg/mL (≈ 16.1 µM).

As for `CCn1c(Nc2ccccc2C)nc2ccsc2c1=O`, the half-maximal inhibitory concentration (IC50) in series [1] turned out to be 88 nM; in series [2], 4300 nM. In addition, in series [3], the solubility came to 10.1 µg/mL (≈ 35.4 µM).

As to `CCn1c(Nc2ccncc2F)nc2c(C3CCCN(C(=O)C4(C#N)CC4)C3)csc2c1=O` (stereo not given), the IC50 was below 100 nM in the series on Lymphocyte; 0.32 nM in series [1]; 20 nM in series [2]; 2900 nM in series [4]; 17 nM in series [5]. Also, the solubility in series [3] stood at 28.1 µg/mL (≈ 60.2 µM).

As for `CCn1c(Nc2ccncc2F)nc2c(C3CCCN(C(=O)OC)C3)csc2c1=O` (stereo not given), the 50% inhibitory concentration (IC50) amounted to 160 nM in the series with Lymphocyte; 0.68 nM in series [1]; 280 nM in series [2]; 520 nM in series [4]; 29 nM in series [5]. Besides, the concentration in solution in series [3] (solubility) was 48.9 µg/mL (≈ 113 µM).

Regarding `CCn1c(Nc2ccncc2F)nc2c(C3CCN(C(=O)OC)CC3)csc2c1=O`, the IC50 in series [1] came out at 1.1 nM; in series [2], 310 nM. The compound also came in with a solubility in series [3] of 0.9 µg/mL (≈ 2.09 µM).

Regarding `CCn1c(Nc2ccncc2F)nc2c(CCCO)csc2c1=O`, the IC50 in the series with Lymphocyte amounted to 480 nM; in series [1], 3.9 nM; in series [2], 180 nM. This compound registered a solubility in series [3] of 31.3 µg/mL (≈ 89.8 µM).

With `CCn1c(Nc2cccc(C)c2)nc2ccsc2c1=O`, the half-maximal inhibitory concentration (IC50) in series [1] is above 1000 nM. In addition, the solubility in series [3] was determined as 65.5 µg/mL (≈ 230 µM).

For the compound `CCc1ccccc1Nc1nc2ccsc2c(=O)n1CC`, the IC50 in series [1] was above 1000 nM. The solubility in series [3] turned out to be 1.9 µg/mL (≈ 6.35 µM).

Usually IC50 stands for the concentration needed to halve the response being measured. Broadly, the solubility is how much of the substance goes into solution per volume.
